US12011444B2, “N-substituted indole derivatives as PGE2 receptor modulators” (Idorsia Pharmaceuticals Ltd, priority 2015, dated 2024)

Tests used:
PTRGER4 (EP4) = PTRGER4 (EP4) (Homo sapiens (Human), UniProt P35408); assay: hEP4 b-arrestin assay (PathHunter HEK 293 PTGER4 b-arrestin cells); format: cell-based
Method in brief: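 Antagonist mode: compound is given 15 min at 37 °C, then 20 nM (final) PGE2 for 120 min, in HEK293 cells stably expressing EP4 fused to ProLink and β-arrestin 2 fused to EA. Recruitment read as β-gal luminescence after 1 h reagent at room temperature, as percent of DMSO control.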

PTGER2 (EP2) = PTGER2 (EP2) (Homo sapiens (Human), UniProt P43116); assay: hEP2 b-arrestin assay (PathHunter HEK 293 PTGER2 b-arrestin cells); format: cell-based
Method in brief: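 Readout is β-galactosidase complementation luminescence, expressed as percent of DMSO control (duplicates). PathHunter HEK293 EP2/β-arrestin 2 cells, grown 24 h, received compound for 15 min at 37 °C before a 120 min challenge with PGE2 at 5 μM final, followed by 1 h detection at room temperature.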

[1] = hEP4 b-arrestin assay (values without asterisk)
[2] = hEP2 b-arrestin assay (values without asterisk)
[3] = antagonistic activity on hEP4, mean where measured multiple times
[4] = antagonistic activity on hEP2, mean where measured multiple times

Chain of PTRGER4 (EP4) (P35408 whole entry, looked up, the tested form may be a part): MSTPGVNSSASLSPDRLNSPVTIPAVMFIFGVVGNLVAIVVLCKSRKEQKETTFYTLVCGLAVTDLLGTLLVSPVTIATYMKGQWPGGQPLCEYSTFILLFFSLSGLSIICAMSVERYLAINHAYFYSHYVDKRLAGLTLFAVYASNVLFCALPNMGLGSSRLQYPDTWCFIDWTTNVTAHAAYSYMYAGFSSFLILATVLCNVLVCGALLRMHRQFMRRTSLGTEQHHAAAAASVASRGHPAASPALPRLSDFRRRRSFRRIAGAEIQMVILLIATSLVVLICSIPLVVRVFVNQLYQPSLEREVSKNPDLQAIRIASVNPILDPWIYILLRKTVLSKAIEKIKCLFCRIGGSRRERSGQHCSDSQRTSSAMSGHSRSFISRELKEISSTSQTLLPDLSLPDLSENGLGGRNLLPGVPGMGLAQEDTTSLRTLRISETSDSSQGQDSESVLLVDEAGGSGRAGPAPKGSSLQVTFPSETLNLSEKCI
Chain of PTGER2 (EP2) (P43116 whole entry): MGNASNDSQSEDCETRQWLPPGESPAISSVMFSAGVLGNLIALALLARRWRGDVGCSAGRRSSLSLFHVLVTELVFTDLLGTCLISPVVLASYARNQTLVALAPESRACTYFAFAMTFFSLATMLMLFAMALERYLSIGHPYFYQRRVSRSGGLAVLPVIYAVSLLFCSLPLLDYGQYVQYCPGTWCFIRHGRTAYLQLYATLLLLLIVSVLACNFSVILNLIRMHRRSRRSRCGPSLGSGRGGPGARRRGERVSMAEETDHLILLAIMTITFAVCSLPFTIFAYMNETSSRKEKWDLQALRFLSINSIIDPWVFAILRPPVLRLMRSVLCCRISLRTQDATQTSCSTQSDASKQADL

IC50 (PTRGER4 (EP4); [1]) [nM] | IC50 (PTGER2 (EP2); [2]) [nM] | IC50 (PTRGER4 (EP4); [3]) [nM] | IC50 (PTGER2 (EP2); [4]) [nM] | Structure (SMILES)
3 | 10 | – | – | COc1ccc(F)c2c1cc(C#N)n2CCNc1cc(-c2ccc3c(c2)N(C)C(=O)NC3)ncn1 [Example 919, 7-Fluoro-4-methoxy-1-{2-[6-(1-methyl-2-oxo-1,2,3,4-tetrahydro-quinazolin-7-yl)-pyrimidin-4-ylamino]-ethyl}-1H-indole-2-carbonitrile]
– | – | 184 | 50 | COc1ccc(F)c2c1cc(C)n2CCNc1cc(-c2ccc3nccnc3c2)ncn1 [compound 376]
4 | 16 | – | – | CCCC(=O)OCOC(=O)c1sc(-c2cc(NCCn3c(C#N)cc4c(OC)ccc(F)c43)ncn2)cc1OCC [Example 1045, 5-{6-[2-(2-Cyano-7-fluoro-4-methoxy-indol-1-yl)-ethylamino]-pyrimidin-4-yl}-3-ethoxy-thiophene-2-carboxylic acid butyryloxymethyl ester]
10 | 54 | – | – | COc1ccc(F)c2c1cc(C#N)n2CCNc1cc(-c2ccc(C(=O)O)c(CC(C)C)c2)ncn1 [Example 946, 4-{6-[2-(2-Cyano-7-fluoro-4-methoxy-indol-1-yl)-ethylamino]-pyrimidin-4-yl}-2-isobutyl-benzoic acid]
– | – | 93 | 78 | COc1ccc(F)c2c1cc(C)n2CCNc1cc(-c2cc(C)c(C(=O)O)c(Cl)c2)ncn1 [compound 156]
– | – | 166 | 102 | COc1cc(F)c(F)c2c1cc(C)n2CCNc1cc(-c2ccc3c(c2)CC(=O)N3)ncn1 [compound 199]
– | – | 732 | 21 | COc1cc(-c2cc(NCCn3c(C)cc4c(C)cc(F)cc43)ncn2)ccc1C(=O)O [compound 232]
– | – | 272 | 54 | Cc1ccc(F)c2c1cc(C)n2CCNc1cc(-c2ccc3ccncc3c2)ncn1 [compound 357]
– | – | 358 | 48 | COc1cc(F)c(F)c2c1cc(C)n2CCNc1cc(-c2ccc3cc[nH]c3c2)ncn1 [compound 92, [2-(6,7-Difluoro-4-methoxy-2-methyl-indol-1-yl)-ethyl]-[6-(1H-indol-6-yl)-pyrimidin-4-yl]-amine]
321 | 20 | – | – | CCOc1cc(-c2cc(NCCn3c(C)cc4c(OC)ccc(F)c43)ncn2)ccc1-c1nc(C)c(C)o1 [Example 848, {6-[4-(4,5-Dimethyl-oxazol-2-yl)-3-ethoxy-phenyl]-pyrimidin-4-yl}-[2-(7-fluoro-4-methoxy-2-methyl-indol-1-yl)-ethyl]-amine]
– | – | 698 | 44 | Cc1cc(-c2cc(NCCn3c(C)cc4c(Cl)ccc(F)c43)ncn2)ccc1C(=O)O [compound 106]
– | – | 12 | 2 | COc1ccc(F)c2c1cc(C)n2CCNc1cc(-c2ccc(-c3cc(N)no3)cc2)ncn1 [compound 304, {6-[4-(3-Amino-isoxazol-5-yl)-phenyl]-pyrimidin-4-yl}-[2-(7-fluoro-4-methoxy-2-methyl-indol-1-yl)-ethyl]-amine]
– | – | 628 | 1 | CCOc1cc(-c2cc(NCCn3c(C)cc4c(F)ccc(F)c43)ncn2)ccc1C(=O)O [compound 154, 4-{6-[2-(4,7-Difluoro-2-methyl-indol-1-yl)-ethylamino]-pyrimidin-4-yl}-2-ethoxy-benzoic acid]
54 | 56 | – | – | CCOc1cc(-c2cc(NCCn3c(C#N)cc4c(OC)cc(F)c(F)c43)ncn2)ccc1C(=O)O [Example 957, 4-{6-[2-(2-Cyano-6,7-difluoro-4-methoxy-indol-1-yl)-ethylamino]-pyrimidin-4-yl}-2-ethoxy-benzoic acid]
19 | 3 | – | – | COc1ccc(F)c2c1cc(C#N)n2CCNc1cc(-c2ccc3c(c2)CCNC3=O)ncn1 [Example 990, 7-Fluoro-4-methoxy-1-{2-[6-(1-oxo-1,2,3,4-tetrahydro-isoquinolin-6-yl)-pyrimidin-4-ylamino]-ethyl}-1H-indole-2-carbonitrile]
– | – | 59 | 10 | COc1ccc(F)c2c1cc(C)n2CCNc1cc(-c2ccc3c(c2)CCN3)ncn1 [compound 67, [6-(2,3-Dihydro-1H-indol-5-yl)-pyrimidin-4-yl]-[2-(7-fluoro-4-methoxy-2-methyl-indol-1-yl)-ethyl]-amine]
7 | 6 | – | – | COc1ccc(F)c2c1cc(C#N)n2CCNc1cc(-c2ccc(O)c(C(F)(F)F)c2)ncn1 [Example 1001, 7-Fluoro-1-{2-[6-(4-hydroxy-3-trifluoromethyl-phenyl)-pyrimidin-4-ylamino]-ethyl}-4-methoxy-1H-indole-2-carbonitrile]
– | – | 134 | 48 | Cc1ccc(F)c2c1cc(C)n2CCNc1cc(-c2ccc3ncccc3c2)ncn1 [compound 355]
48 | 3 | – | – | COc1ccc(F)c2c1cc(C)n2CCNc1cc(-c2cc(-c3ccccn3)c(C(=O)O)s2)ncn1 [Example 1066, 5-{6-[2-(7-Fluoro-4-methoxy-2-methyl-indol-1-yl)-ethylamino]-pyrimidin-4-yl}-3-pyridin-2-yl-thiophene-2-carboxylic acid]
472 | 41 | – | – | COc1ccc(F)c2c1cc(C)n2CCNc1cc(-c2ccc(C(=O)O)c(C#N)c2)ncn1 [Example 888, 2-Cyano-4-{6-[2-(7-fluoro-4-methoxy-2-methyl-indol-1-yl)-ethylamino]-pyrimidin-4-yl}-benzoic acid]

Continued, compound first:

Structure (SMILES) | IC50 (PTRGER4 (EP4); [1]) [nM] | IC50 (PTGER2 (EP2); [2]) [nM] | IC50 (PTRGER4 (EP4); [3]) [nM] | IC50 (PTGER2 (EP2); [4]) [nM]
CCOc1cc(-c2cc(NCCn3c(C)cc4c(Cl)ccc(F)c43)ncn2)sc1C(=O)O [compound 240] | – | – | 10 | 2
CCOc1cc(-c2cc(NCCn3c(C)cc4c(C)ccc(F)c43)ncn2)cc(C)c1C(=O)O [compound 347, 2-Ethoxy-4-{6-[2-(7-fluoro-2,4-dimethyl-indol-1-yl)-ethylamino]-pyrimidin-4-yl}-6-methyl-benzoic acid] | – | – | 239 | 11
CCOc1cc(-c2cc(NCCn3c(C)cc4c(Cl)cc(F)cc43)ncn2)sc1C(=O)O [compound 239] | – | – | 19 | 1
CCNc1cc(-c2cc(NCCn3c(C)cc4cc(F)cc(F)c43)ncn2)ccc1C(=O)O [compound 167, 4-{6-[2-(5,7-Difluoro-2-methyl-indol-1-yl)-ethylamino]-pyrimidin-4-yl}-2-ethylamino-benzoic acid] | – | – | 333 | 6
Cc1cc(F)cc2c1cc(C)n2CCNc1cc(-c2ccc3cc[nH]c3c2)ncn1 [compound 10, [2-(6-Fluoro-2,4-dimethyl-indol-1-yl)-ethyl]-[6-(1H-indol-6-yl)-pyrimidin-4-yl]-amine] | – | – | 691 | 69
CNc1cc(-c2cc(NCCn3c(C)cc4c(C)cc(F)cc43)ncn2)ccc1C(=O)O [compound 209] | – | – | 123 | 3
CCC1NC(=O)c2ccc(-c3cc(NCCn4c(C)cc5c(C)ccc(F)c54)ncn3)cc21 (racemic) [compound 207] | – | – | 645 | 19
CCOc1cc(-c2cc(NCCn3c(C)cc4c(OC)ccc(C)c43)ncn2)sc1C(=O)O [compound 261] | – | – | 71 | 12
COc1ccc(F)c2c1cc(C)n2CCNc1cc(-c2cnc(N3CCOCC3)s2)ncn1 [compound 181] | – | – | 864 | 173
CCCCOc1cc(-c2cc(NCCn3c(C#N)cc4c(OC)ccc(F)c43)ncn2)ccc1C(=O)O [Example 872, 2-Butoxy-4-{6-[2-(2-cyano-7-fluoro-4-methoxy-indol-1-yl)-ethylamino]-pyrimidin-4-yl}-benzoic acid] | 18 | 12 | – | –
Cc1cc2c(Cl)ccc(Cl)c2n1CCNc1cc(-c2ccc(C(=O)O)c(SCC(C)C)c2)ncn1 [compound 370, 4-{6-[2-(4,7-Dichloro-2-methyl-indol-1-yl)-ethylamino]-pyrimidin-4-yl}-2-isobutylsulfanyl-benzoic acid] | – | – | 992 | 35
CCOc1cc(-c2cc(NCCn3c(C)cc4ccc(OC)cc43)ncn2)sc1C(=O)O [compound 117, 3-Ethoxy-5-{6-[2-(6-methoxy-2-methyl-indol-1-yl)-ethylamino]-pyrimidin-4-yl}-thiophene-2-carboxylic acid] | – | – | 114 | 1
CCOc1cc(-c2cc(NCCn3c(C)cc4c(C)cc(F)cc43)ncn2)ccc1-c1noc(=O)[nH]1 [Example 835, 3-(2-Ethoxy-4-{6-[2-(6-fluoro-2,4-dimethyl-indol-1-yl)-ethylamino]-pyrimidin-4-yl}-phenyl)-[1,2,4]oxadiazol-5(4H)-one] | 31 | 19 | – | –
Cc1cc(F)cc2c1cc(C)n2CCNc1cc(-c2cc(Cl)c(C(=O)O)s2)ncn1 [compound 19, 3-Chloro-5-{6-[2-(6-fluoro-2,4-dimethyl-indol-1-yl)-ethylamino]-pyrimidin-4-yl}-thiophene-2-carboxylic acid] | – | – | 99 | 17
CCOc1cc(-c2cc(NCCn3c(C)cc4c(C)c(F)cc(Cl)c43)ncn2)sc1C(=O)O [Example 837, 5-{6-[2-(7-Chloro-5-fluoro-2,4-dimethyl-indol-1-yl)-ethylamino]-pyrimidin-4-yl}-3-ethoxy-thiophene-2-carboxylic acid] | 39 | 28 | – | –
CCSc1cc(-c2cc(NCCn3c(C)cc4c(Cl)ccc(Cl)c43)ncn2)ccc1C(=O)O [compound 149, 4-{6-[2-(4,7-Dichloro-2-methyl-indol-1-yl)-ethylamino]-pyrimidin-4-yl}-2-ethylsulfanyl-benzoic acid] | – | – | 605 | 10
CSc1cc(-c2cc(NCCn3c(C)cc4c(C)c(F)cc(Cl)c43)ncn2)cc(F)c1C(=O)O [compound 330] | – | – | 667 | 102
